For 32 compounds, IC50 results are on record in patent US20240140931A1, “TRICYCLIC COMPOUNDS AND USES THEREOF” (HUTCHMED LIMITED, priority 2021, published 2024).

The test system of assay [1] is pERK1/2 (Thr202/Tyr204) in Miapaca2 cells. In words: Assay of intracellular pERK1/2 (Thr202/Tyr204) phosphorylation. In kind it is cell-based. As to conditions: pERK1/2 (Thr202/Tyr204) HTRF. The method, boiled down:
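HTRF read-out (665/615 nm) of phospho-ERK1/2 Thr202/Tyr204 in lysates from Miapaca2 cells exposed for 2 h to 3-fold compound dilutions at 0.5% final DMSO. Controls: lysis buffer without cells and DMSO-treated cells; IC50 from four-parameter logistic fit.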
(In general: Time-resolved FRET reads energy transfer from a long-lived donor to a nearby acceptor.)

The target in assay [2] is Human full-length SHP2 recombinant protein (Homo sapiens (Human), UniProt Q06124). The experiment in a line: Assay of full-length SHP2 phosphatase activity. In kind it is biochemical. As to conditions: DiFMUP substrate, with activating peptide. The gist of the method:
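Readout: DiFMUP hydrolysis fluorescence (355/460 nm) after 60 min at 25 °C, following 30 min RT preincubation of compound with peptide-activated full-length human SHP2. Controls were 1% DMSO with or without enzyme; IC50 by four-parameter logistic fit.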

Human full-length SHP2 recombinant protein, sequence (Q06124 whole entry): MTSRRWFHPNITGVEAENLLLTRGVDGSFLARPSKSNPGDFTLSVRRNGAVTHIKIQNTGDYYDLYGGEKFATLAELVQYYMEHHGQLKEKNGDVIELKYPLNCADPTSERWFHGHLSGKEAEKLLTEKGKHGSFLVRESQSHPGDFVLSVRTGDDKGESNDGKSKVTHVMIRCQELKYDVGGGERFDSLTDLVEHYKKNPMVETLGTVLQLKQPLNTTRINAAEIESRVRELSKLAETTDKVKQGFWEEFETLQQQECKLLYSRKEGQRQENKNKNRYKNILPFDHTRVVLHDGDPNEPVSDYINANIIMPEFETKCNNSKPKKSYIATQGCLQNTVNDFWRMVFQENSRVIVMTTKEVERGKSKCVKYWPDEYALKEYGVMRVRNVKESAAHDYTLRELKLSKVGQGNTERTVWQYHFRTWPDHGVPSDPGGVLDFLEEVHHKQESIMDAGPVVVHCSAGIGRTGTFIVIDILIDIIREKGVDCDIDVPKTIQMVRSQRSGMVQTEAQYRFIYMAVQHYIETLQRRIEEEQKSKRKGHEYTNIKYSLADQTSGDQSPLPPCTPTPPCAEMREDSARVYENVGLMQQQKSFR

On to `C#Cc1ccc2c(c1)CC1(CCN(c3nc(N)c(-c4cn(C)c5ncccc45)c(=O)n3C)CC1)[C@@H]2N` [Compound 4, (S)-6-amino-2-(1-amino-5-ethynyl-1,3-dihydrospiro[indene-2,4′-piperidin]-1′-yl)-3-methyl-5-(1-methyl-1H-pyrrolo[2,3-b]pyridin-3-yl)pyrimidin-4(3H)-one], for which the IC50 (commonly the concentration needed to halve the response being measured) in assay [1] (Homo sapiens, MIA PaCa-2, 2 h) is 160 nM; in assay [2], 4 nM.

Regarding `COCC#Cc1ccc2c(c1)[C@@H](N)C1(CCN(c3nc(C)n(-c4cccc(Cl)c4Cl)c(=O)c3F)CC1)C2` [Compound 169], the IC50 in assay [1] (Homo sapiens, MIA PaCa-2, 2 h) was 125 nM; in assay [2] it was 6 nM.

On to `C#Cc1ccc2c(c1)[C@@H](N)C1(CCN(c3cc(=O)n(-c4cccc(OC)c4Cl)c(C)n3)CC1)C2` (atropisomer, axis not shown) [Compound 111], for which the IC50 in assay [1] (2 hours) was determined as 15 nM; in assay [2], 2 nM.

Consider `C#Cc1ccc2c(c1)[C@@H](N)C1(CCN(c3ncc(Sc4ccnc(N)n4)c4nccn34)CC1)C2` [Compound 27], for which the IC50 in assay [1] (Homo sapiens, MIA PaCa-2, 2 h) is 11 nM; in assay [2] it was 1 nM.

With `C#Cc1ccc2c(c1)[C@@H](N)C1(CCN(c3cc(=O)n(-c4cccc(Cl)c4F)c(C)n3)CC1)C2` [Compound 16], the results for the IC50 in assay [1] (2 hours) and in assay [2] were 34 nM and 4 nM, respectively.

For `CNC(=O)C#Cc1ccc2c(c1)[C@@H](N)C1(CCN(c3ncc(N4CCCc5ncccc54)nc3C)CC1)C2` [Compound 263], the IC50 was 204 nM in assay [1] (Homo sapiens, MIA PaCa-2, 2 h) and 9 nM in assay [2].

For the compound `C#Cc1ccc2c(c1)[C@@H](N)C1(CCN(c3cc(=O)n(-c4ccc(F)c(OC)c4F)c(C)n3)CC1)C2` (atropisomer, axis not shown) [Compound 89], the IC50 in assay [1] (2 hours) amounted to 153 nM; in assay [2] it was 15 nM.

Take `C#Cc1ccc2c(c1)OC1(CCN(c3cc(=O)n(-c4cccc(Cl)c4Cl)c(C)n3)CC1)[C@@H]2N` (atropisomer, axis not shown) [Compound 11]: the IC50 in assay [1] (Homo sapiens, MIA PaCa-2, 2 h) was 1150 nM; in assay [2], 97 nM.

In the case of `Nc1nccc(Sc2cnc(N3CCC4(CC3)Cc3ccc(C#CC(=O)N5CCC5)cc3[C@H]4N)cn2)c1Cl` [Compound 303], the IC50 is 9 nM in assay [1] (Homo sapiens, MIA PaCa-2, 2 h) and 0.5 nM in assay [2].

For the compound `Cc1nc(N2CCC3(CC2)Cc2ccc(C#CCN(C)C)cc2[C@H]3N)cc(=O)n1-c1cccc(F)c1Cl` [Compound 74], the IC50 in assay [1] (Homo sapiens, MIA PaCa-2, 2 h) came to 223 nM; in assay [2], 4 nM.

`C#Cc1ccc2c(c1)[C@@H](N)C1(CCN(c3cc(=O)n(-c4cccc(OCC)c4Cl)c(C)n3)CC1)C2` [Compound 62]: the IC50 in assay [1] (Homo sapiens, MIA PaCa-2, 2 h) amounted to 105 nM; in assay [2], 5 nM.

For the compound `Cc1nc(N2CCC3(CC2)Cc2ccc(C#CCOC(C)(C)C)cc2[C@H]3N)cc(=O)n1-c1cccc(Cl)c1Cl` [Compound 31], the IC50 amounted to 37 nM in assay [1] (Homo sapiens, MIA PaCa-2, 2 h) and 5 nM in assay [2].

Consider `COCCSc1ccc2c(c1)[C@@H](N)C1(CCN(c3cc(=O)n(-c4cccc(Cl)c4Cl)c(C)n3)CC1)C2` [Compound 99], for which the IC50 in assay [1] (Homo sapiens, MIA PaCa-2, 2 h) was found to be 40 nM; in assay [2] it was 2 nM.

For `C#Cc1ccc2c(c1)[C@@H](N)C1(CCN(c3cc(=O)n(-c4cccc(OC)c4Cl)c(C)n3)CC1)C2` (atropisomer, axis not shown) [Compound 110], the IC50 in assay [1] (2 hours) stood at 959 nM; in assay [2], 249 nM.

For `C#Cc1ccc2c(c1)[C@@H](N)C1(CCN(c3cc(=O)n(-c4ccc(OC)c(Cl)c4Cl)c(C)n3)CC1)C2` [Compound 211], the IC50 in assay [1] (Homo sapiens, MIA PaCa-2, 2 h) is 161 nM; in assay [2] it was 17 nM.

Turning to `CN(C)CC#Cc1ccc2c(c1)[C@@H](N)C1(CCN(c3ncc(Sc4ccnc(N)c4Cl)c4nccn34)CC1)C2` [Compound 71], the IC50 in assay [1] (Homo sapiens, MIA PaCa-2, 2 h) was 22 nM; in assay [2], 1 nM.

Turning to `CN(C)CC#Cc1ccc2c(c1)C(=O)C1(CCN(c3ncc(Sc4ccnc(N)c4Cl)c4nccn34)CC1)C2` [Compound 72], the IC50 in assay [1] (Homo sapiens, MIA PaCa-2, 2 h) is above 1000 nM; in assay [2], 978 nM.

For the compound `CNCC#Cc1ccc2c(c1)[C@@H](N)C1(CCN(c3cc(=O)n(-c4cccc(Cl)c4Cl)c(C)n3)CC1)C2` [Compound 67], the IC50 turned out to be 39 nM in assay [1] (Homo sapiens, MIA PaCa-2, 2 h) and 1 nM in assay [2].

Consider `Cc1nc(N2CCC3(CC2)Cc2ccc(C#C[C@@H](C)O)cc2[C@H]3N)cc(=O)n1-c1cccc(Cl)c1Cl` [Compound 37], for which the IC50 was 599 nM in assay [1] (Homo sapiens, MIA PaCa-2, 2 h) and 44 nM in assay [2].

Take `COCC#Cc1ccc2c(c1)[C@@H](N)C1(CCN(c3ncc(Sc4ccnc(N)n4)c4nccn34)CC1)C2` [Compound 100]: the IC50 amounted to 12 nM in assay [1] (Homo sapiens, MIA PaCa-2, 2 h) and 2 nM in assay [2].

For the compound `C#Cc1ccc2c(c1)[C@@H](N)C1(CCN(c3nc(C)n(-c4cccc(Cl)c4Cl)c(=O)c3C)CC1)C2` (atropisomer, axis not shown) [Compound 48], the IC50 in assay [1] (2 hours) was determined as 231 nM; in assay [2], 63 nM.

Take `C#Cc1ccc2c(c1)[C@@H](N)C1(CCN(c3cc(=O)n(-c4ccc(C#N)c(F)c4Cl)c(C)n3)CC1)C2` [Compound 198]: the IC50 in assay [1] (Homo sapiens, MIA PaCa-2, 2 h) came to 191 nM; in assay [2] it was 16 nM.

On to `C#Cc1ccc2c(c1)[C@@H](N)C1(CCN(c3cc(=O)n(-c4ccc(F)c(Cl)c4Cl)c(C)n3)CC1)C2` (atropisomer, axis not shown) [Compound 108], for which the IC50 in assay [1] (2 hours) worked out at 7 nM; in assay [2], 1 nM.

`C#Cc1ccc2c(c1)[C@@H](N)C1(CCN(c3nc(C)n(-c4ccc(F)cc4Cl)c(=O)c3C)CC1)C2` [Compound 54]: the IC50 in assay [1] (2 hours) is 36 nM; in assay [2], 3 nM.

For the compound `CC#Cc1ccc2c(c1)[C@@H](N)C1(CCN(c3cc(=O)n(-c4ccc(F)c(Cl)c4Cl)c(C)n3)CC1)C2` (atropisomer, axis not shown) [Compound 220], the figures for the IC50 in assay [1] (2 hours) and in assay [2] were above 1000 nM and 317 nM, respectively.

Take `C#Cc1ccc2c(c1)[C@@H](N)C1(CCN(c3cc(=O)n(-c4cc(F)cc(F)c4)c(C)n3)CC1)C2` [Compound 55]: the IC50 in assay [1] (Homo sapiens, MIA PaCa-2, 2 h) came to 388 nM; in assay [2], 26 nM.

For `C#Cc1ccc2c(c1)CC1(CCN(c3ncc(Sc4ccnc(N)n4)c4nccn34)CC1)[C@@H]2N` [Compound 9], the IC50 in assay [1] (Homo sapiens, MIA PaCa-2, 2 h) is 38 nM; in assay [2] it was 4 nM.

For the compound `C#Cc1ccc2c(c1)[C@@H](N)C1(CCN(c3ncc(-c4cn(C)c5ncccc45)c(=O)n3C)CC1)C2` [Compound 285], the 50% inhibitory concentration (IC50) came out at 962 nM in assay [1] (Homo sapiens, MIA PaCa-2, 2 h) and 85 nM in assay [2].

As to `C#Cc1ccc2c(c1)[C@@H](N)C1(CCN(c3cnc(Sc4ccnc(N)c4Cl)c(N)n3)CC1)C2` [Compound 95], the IC50 in assay [1] (Homo sapiens, MIA PaCa-2, 2 h) stood at 2 nM; in assay [2] it was 3 nM.

On to `C#Cc1ccc2c(c1)[C@@H](N)C1(CCN(c3cc(=O)n(-c4cccc(OC)c4)c(C)n3)CC1)C2` [Compound 43], for which the half-inhibitory concentration (IC50) was 117 nM in assay [1] (Homo sapiens, MIA PaCa-2, 2 h) and 6 nM in assay [2].

Consider `C#Cc1ccc2c(c1)[C@@H](N)C1(CCN(c3cc(=O)n(-c4ccc(F)c(F)c4Cl)c(C)n3)CC1)C2` (atropisomer, axis not shown) [Compound 113], for which the IC50 in assay [1] (2 hours) turned out to be 14 nM; in assay [2], 2 nM.

For the compound `NC(=O)C#Cc1ccc2c(c1)[C@@H](N)C1(CCN(c3ncc(Sc4ccnc(N)c4Cl)c4nccn34)CC1)C2` [Compound 128], the IC50 in assay [1] (Homo sapiens, MIA PaCa-2, 2 h) was found to be 15 nM; in assay [2], 0.9 nM.
